# According to patent US5455271A, “Tight-binding inhibitors of leukotriene A4 hydrolase” (The Scripps Research Institute, priority 1993, dated 1995):
# Read-outs that look alike come from different tables or passages of the source.
# B1: LTA4 hydrolase (Homo sapiens) (protein)
# chain: MPEIVDTCSLASPASVCRTKHLHLRCSVDFTRRTLTGTAALTVQSQEDNLRSLVLDTKDLTIEKVVINGQEVKYALGERQSYKGSPMEISLPIALSKNQEIVIEISFETSPKSSALQWLTPEQTSGKEHPYLFSQCQAIHCRAILPCQDTPSVKLTYTAEVSVPKELVALMSAIRDGETPDPEDPSRKIYKFIQKVPIPCYLIALVVGALESRQIGPRTLVWSEKEQVEKSAYEFSETESMLKIAEDLGGPYVWGQYDLLVLPPSFPYGGMENPCLTFVTPTLLAGDKSLSNVIAHEISHSWTGNLVTNKTWDHFWLNEGHTVYLERHICGRLFGEKFRHFNALGGWGELQNSVKTFGETHPFTKLVVDLTDIDPDVAYSSVPYEKGFALLFYLEQLLGGPEIFLGFLKAYVEKFSYKSITTDDWKDFLYSYFKDKVDVLNQVDWNAWLYSPGLPPIKPNYDMTLTNACIALSQRWITAKEDDLNSFNATDLKDLSSHQLNEFLAQTLQRAPLPLGHIKRMQEVYNFNAINNSEIRFRWLRLCIQSKWEDAIPLALKMATEQGRMKFTRPLFKDLAAFDKSHDQAVRTYQEHKASMHPVTAMLVGKDLKVD
# Key:
# [1] = target: cytosolic leucine aminopeptidase; assay: Inhibition of cytosolic leucine aminopeptidase; format: biochemical
# LTC4 Synthase = assay: Inhibition of LTC4 synthase activity in human platelets; format: cell-based
# Description: (§1) Compounds 24 and 27 were also studied for their abilities to inhibit 5- and 15-lipoxygenase using calcium ionophore A-23187-stimulated polymorphonuclear leukocytes (PMNL) in the presence of exogenous arachidonic acid. […] LTC4 Synthase activity in human platelets was also not inhibited.
# 15-lipoxygenase = assay: Inhibition of 15-lipoxygenase in A-23187-stimulated PMNL with exogenous arachidonic acid; format: cell-based
# Description: as §1
# Thromboxane B2 (TXB2) = assay: Inhibition of thromboxane B2 (TXB2) in calcium ionophore A-23187-stimulated human blood; format: cell-based
# Protocol: (§4) Blood was drawn from a human volunteer, and a compound solution at one of three concentrations (Table 3) or a single concentration (Table 4), or solution alone (vehicle) was added to a one ml aliquot of the blood. After incubation for 15 minutes, 14 μg of calcium ionophore A-23187 (as the free acid) was added, and the incubation continued for another 15 minutes. The reactions were stopped by immersion of the containers into slush ice, and the samples were centrifuged at 11,000 ×g to pellet red cells and leukocytes. An aliquot of the plasma was then assayed for the presence of thromboxane B2 or leukotriene B4 by standard radioimmunoassay techniques.
# aminopeptidase M = target: T1, aminopeptidase M (Sus scrofa, UniProt P15145); assay: Inhibition of aminopeptidase M; format: biochemical
# T1 sequence (P15145 1-963): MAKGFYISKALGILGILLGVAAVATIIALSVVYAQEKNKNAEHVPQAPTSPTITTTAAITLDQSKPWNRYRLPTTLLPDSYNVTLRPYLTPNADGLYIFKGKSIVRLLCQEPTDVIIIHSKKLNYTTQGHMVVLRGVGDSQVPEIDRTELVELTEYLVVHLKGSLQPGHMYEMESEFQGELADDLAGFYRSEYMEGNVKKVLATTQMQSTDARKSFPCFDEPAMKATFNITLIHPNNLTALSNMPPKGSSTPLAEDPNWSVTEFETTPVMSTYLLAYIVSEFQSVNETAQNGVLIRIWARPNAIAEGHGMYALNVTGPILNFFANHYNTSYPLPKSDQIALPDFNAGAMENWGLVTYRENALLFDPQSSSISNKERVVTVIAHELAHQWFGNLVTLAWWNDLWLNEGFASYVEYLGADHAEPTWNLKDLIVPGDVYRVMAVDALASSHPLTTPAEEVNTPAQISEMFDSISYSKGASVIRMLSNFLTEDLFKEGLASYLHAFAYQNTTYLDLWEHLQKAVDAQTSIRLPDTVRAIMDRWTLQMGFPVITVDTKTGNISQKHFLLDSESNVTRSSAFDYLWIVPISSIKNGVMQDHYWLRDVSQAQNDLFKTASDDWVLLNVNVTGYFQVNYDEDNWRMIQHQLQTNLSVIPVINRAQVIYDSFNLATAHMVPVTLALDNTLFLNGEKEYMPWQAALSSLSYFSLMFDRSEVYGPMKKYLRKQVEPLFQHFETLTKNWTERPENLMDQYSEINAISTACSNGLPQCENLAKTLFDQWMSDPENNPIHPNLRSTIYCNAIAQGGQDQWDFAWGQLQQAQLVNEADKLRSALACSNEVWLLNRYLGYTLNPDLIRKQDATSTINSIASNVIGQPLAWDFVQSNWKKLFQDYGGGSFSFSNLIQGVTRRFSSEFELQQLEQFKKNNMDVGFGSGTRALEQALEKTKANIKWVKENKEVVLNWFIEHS
# Leukotriene B4 (LTB4) = assay: Inhibition of leukotriene B4 (LTB4) in calcium ionophore A-23187-stimulated human blood; format: cell-based
# Protocol: as §4
# [2] = system: LTB4 Formation in intact PMNL; assay: LTB4 formation in calcium ionophore A-23187-stimulated intact PMNL; format: cell-based; conditions: for IC50: Homo sapiens, PMNL, calcium ionophore A-23187-stimulated, dose dependent
# LTA4 hydrolase [3] = target: T2, LTA4 hydrolase (Homo sapiens, UniProt P09960); conditions: LTA4 as substrate, Radmark et al., cited from earlier work
# T2 sequence (P09960 1-611): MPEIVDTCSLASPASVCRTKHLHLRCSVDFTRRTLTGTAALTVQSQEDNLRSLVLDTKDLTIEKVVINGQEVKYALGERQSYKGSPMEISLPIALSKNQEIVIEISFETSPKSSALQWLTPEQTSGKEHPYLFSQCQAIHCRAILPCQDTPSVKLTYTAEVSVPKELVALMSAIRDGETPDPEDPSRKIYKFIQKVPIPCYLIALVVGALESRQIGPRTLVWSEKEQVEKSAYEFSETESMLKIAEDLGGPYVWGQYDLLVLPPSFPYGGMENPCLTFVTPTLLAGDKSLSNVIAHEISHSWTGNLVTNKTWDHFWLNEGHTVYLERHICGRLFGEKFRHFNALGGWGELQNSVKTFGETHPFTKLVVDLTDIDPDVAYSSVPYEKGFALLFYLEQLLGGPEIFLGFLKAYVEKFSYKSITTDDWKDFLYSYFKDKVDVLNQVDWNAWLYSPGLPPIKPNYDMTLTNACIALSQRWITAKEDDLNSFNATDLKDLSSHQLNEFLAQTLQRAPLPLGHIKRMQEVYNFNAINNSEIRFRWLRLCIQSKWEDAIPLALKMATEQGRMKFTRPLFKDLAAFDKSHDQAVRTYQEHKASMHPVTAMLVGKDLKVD
# LTA4 hydrolase [4] = target: T2, LTA4 hydrolase; assay: Kinetic parameters of LTA4 hydrolase-catalyzed hydrolysis of LTA4 and amide substrates; format: biochemical; conditions: Table 1; 50 mM TrisCl, pH 7.6, 0.1 M NaCl
# Protocol: (§2) Several amino acid amides were assayed as substrates for LTA4 hydrolase. Yuan et al., Bioorg. & Med. Chem. Lett., 1:551 (1991).
# (§3) ^a Determined in 50 mM TrisCl, pH 7.6, in the presence of 0.1 M NaCl, […]
# LTA4 hydrolase [5] = target: T2, LTA4 hydrolase; conditions: literature; cited from earlier work
# [6] = target: T3, LTA4 hydrolase (epoxide hydrolase activity) (Homo sapiens, UniProt P09960); assay: Inhibition of epoxide hydrolase activity of LTA4 hydrolase, LTA4 as substrate; format: biochemical; conditions: Table 5; read-out: IC50 Epoxide Hydrolase
# T3 construct: obtained from human leukocytes and was purified to apparent homogeneity; from tissue; host or cells: human leukocytes (purified to apparent homogeneity)
# T3 sequence (P09960 1-611): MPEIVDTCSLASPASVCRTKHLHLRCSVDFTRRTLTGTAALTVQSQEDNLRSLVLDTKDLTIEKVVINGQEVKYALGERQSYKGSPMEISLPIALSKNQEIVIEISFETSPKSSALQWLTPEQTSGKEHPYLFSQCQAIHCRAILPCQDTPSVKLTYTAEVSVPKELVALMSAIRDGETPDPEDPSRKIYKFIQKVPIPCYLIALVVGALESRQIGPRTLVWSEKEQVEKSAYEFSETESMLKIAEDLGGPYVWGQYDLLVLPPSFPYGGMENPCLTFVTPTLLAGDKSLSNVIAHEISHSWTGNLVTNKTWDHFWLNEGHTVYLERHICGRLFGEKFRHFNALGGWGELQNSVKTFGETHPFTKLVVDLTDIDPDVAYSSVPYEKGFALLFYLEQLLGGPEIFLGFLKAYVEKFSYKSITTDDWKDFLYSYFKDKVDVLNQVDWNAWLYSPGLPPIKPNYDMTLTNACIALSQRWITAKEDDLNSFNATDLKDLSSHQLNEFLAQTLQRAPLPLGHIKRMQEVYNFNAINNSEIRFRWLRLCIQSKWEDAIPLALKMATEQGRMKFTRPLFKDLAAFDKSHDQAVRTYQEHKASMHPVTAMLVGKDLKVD
# Protocol: Aliquots of enzyme (2.5 mg) were preincubated for 30-40 minutes at room temperature in 100 mL of 50 mM HEPES, pH 8, containing various amounts of the respective inhibitor. […] After addition of 200 ng PGB1 (internal standard), samples were acidified to pH value of 3 with 0.1M HCl, extracted on Chromabond C18 columns (Mackerey & Nagel), and finally analyzed on a computerized Waters HPLC system. The column (Radial-Pak C18 cartridge, 100×5 mm, Waters) was eluted with a mixture of methanol/water/acetic acid (70:30:0.01, v/v) at a flow rate of 1.2 mL/minutes. The UV absorbance of the eluate was monitored continuously at 270 nm. Amounts of LTB4 were computer calculated from peak area ratios between LTB4 and the internal standard PGB1. Peak area ratios were converted into molar ratios from comparisons with standard curve constructed from injections of known amounts of the respective compound.
# LTA4 hydrolase [7] = target: T2, LTA4 hydrolase; assay: Inhibition of LTA4 hydrolase, amidase (aminopeptidase) activity, L-alanyl p-nitroanilide as substrate; format: biochemical; parameters: LTA4 hydrolase purified from human leukocytes; from tissue; host or cells: human leukocytes (purified enzyme)
# Protocol: ^a All assays were performed in TrisHCl buffer (0.05 M, pH 8.0) with
# Lalanyl pnitroanilide (1.5 mM) as substrate unless otherwise indicated.
# for each assay (final volume = 1.0 mL). pNitroaniline formation was
# monitored spectrophotometrically at 405 nm. Thiol compounds were assayed
# in the presence of 5 mM DTT. The values shown are within ± 5 percent
# accuracy. Dixon plot was used to determine the Ki values.
# 5-lipoxygenase = conditions: read-out: IC50, 5-lipoxygenase production of 5-HETE; cited from earlier work
# cyclooxygenase = conditions: read-out: IC50, cyclooxygenase production of PGD2; cited from earlier work
# [8] = substrate: CC(C)C[C@H](N)C(=O)Nc1ccc([N+](=O)[O-])cc1; assay: Kinetic parameters of LTA4 hydrolase-catalyzed hydrolysis of LTA4 and amide substrates; format: biochemical; conditions: other: Table 1, 50 mM TrisCl, pH 7.6, 0.1 M NaCl
# Protocol: as §2, §3
# [9] = substrate: C[C@H](N)C(=O)Nc1ccc([N+](=O)[O-])cc1; assay: as above; format: biochemical; conditions: other: Table 1, 50 mM TrisCl, pH 7.6, 0.1 M NaCl
# Protocol: as §2, §3
# [10] = substrate: NCCCC[C@H](N)C(=O)Nc1ccc([N+](=O)[O-])cc1; assay: as above; format: biochemical; conditions: other: Table 1, 50 mM TrisCl, pH 7.6, 0.1 M NaCl
# Protocol: as §2, §3
# [11] = substrate: CCCCC/C=C\C\C=C/C=C/C=C/[C@@H]1O[C@H]1CCCC(=O)O; assay: as above; format: biochemical; conditions: other: Table 1, 50 mM TrisCl, pH 7.6, 0.1 M NaCl
# Protocol: as §2, §3
# [12] = substrate: O=C(Nc1ccc([N+](=O)[O-])cc1)[C@@H]1CCCN1; assay: as above; format: biochemical; conditions: other: Table 1, 50 mM TrisCl, pH 7.6, 0.1 M NaCl
# Protocol: as §2, §3
# [13] = substrate: N=C(N)NCCC[C@H](N)C(=O)Nc1ccc([N+](=O)[O-])cc1; assay: purified protein, by the assay type; conditions: other: Table 1, 50 mM TrisCl, pH 7.6, 0.1 M NaCl
# [14] = read-out: % Inhibition TXB2, Table 4, 10 μM
# [15] = Homo sapiens, read-out: % Inhibition LTB4, Table 3
# [16] = Homo sapiens, read-out: % Inhibition LTB4, Table 4
# [17] = Homo sapiens, Table 3, read-out: % Inhibition LTB4
molecule,measurement,setting,value
N[C@@H](Cc1ccc(OCc2ccccc2)cc1)[C@H](O)C(=O)OCc1ccccc1 [Compound 24],IC50,[1],80000 nM
same,inhibition of LTC4 synthase activity (in words),LTC4 Synthase,not inhibited
same,inhibition of 15-lipoxygenase activity (in words),15-lipoxygenase,No inhibition
same,inhibition at 1 µM,"Thromboxane B2 (TXB2); read-out: % Inhibition TXB2, Table 3, 1 μM",0%
same,inhibition at 3 µM,"Thromboxane B2 (TXB2); read-out: % Inhibition TXB2, Table 3, 3 μM",17%
same,inhibition at 10 µM,"Thromboxane B2 (TXB2); read-out: % Inhibition TXB2, Table 3, 10 μM",4%
same,inhibition at 10 µM,Thromboxane B2 (TXB2); [14],0%
same,IC50,aminopeptidase M,> 100000 nM
same,inhibition at 1 µM,Leukotriene B4 (LTB4); [15],7%
same,inhibition at 3 µM,Leukotriene B4 (LTB4); [15],44%
same,inhibition at 10 µM,Leukotriene B4 (LTB4); [15],39%
same,inhibition at 10 µM,Leukotriene B4 (LTB4); [16],18%
same,IC50,[2],100 to 200 nM
same,activity in intact PMNL compared with isolated enzyme (in words),[2]; intact PMNL versus isolated enzyme,unexpectedly much more active in this assay using intact PMNL than in assays with the isolated enzyme
"CCCCC/C=C\C\C=C/C=C/C=C/[C@@H]1O[C@H]1CCCC(=O)O [LTA4, 5(S)-5,6-oxido-7,9-trans-11,14-cis-eicosatetraenoic acid]",Vmax reported for native LTA4 hydrolase,LTA4 hydrolase [3],1.7 to 3.0 µmol/min/mg
same,Km,"LTA4 hydrolase [3]; native LTA4 hydrolase, read-out: Km reported for native LTA4 hydrolase",7 to 30 µM
same,kcat /Km,LTA4 hydrolase [4],9.0 × 10^4 M^- x^-1
same,"inhibition of LTA4 hydrolase, type of inhibition (in words)",LTA4 hydrolase [5],irreversibly inhibited
"Cl.N[C@H](CS)Cc1ccc(OCc2ccccc2)cc1 [Compound 27, (2S)-3-[4-(benzyloxy)phenyl]-2-amino-propanethiol HCl]",IC50,[1],> 50000 nM
same,inhibition of LTC4 synthase activity (in words),LTC4 Synthase,not inhibited
same,inhibition of 15-lipoxygenase activity (in words),15-lipoxygenase,No inhibition
same,inhibition at 10 µM,Thromboxane B2 (TXB2); [14],100%
same,inhibition at 10 µM,Leukotriene B4 (LTB4); [16],100%
same,IC50,"Leukotriene B4 (LTB4); Homo sapiens, read-out: IC50 in this assay (human blood)",~1100 nM
same,IC50,[2],100 to 200 nM
COC(=O)C(=O)[C@@H](N)Cc1ccc(OCc2ccccc2)cc1 [Compound 25],IC50,[6],100000 nM
same,tightness of binding to the enzyme relative to Compound 23,LTA4 hydrolase [7]; Compound 25 versus Compound 23,30 times
same,IC50,"LTA4 hydrolase [7]; L-alanyl p-nitroanilide 1.5 mM, pH 8.0, thiols with 5 mM DTT",600 nM
same,selectivity for LTA4 binding (in words),LTA4 hydrolase [7]; versus other aminopeptidases,selective for LTA4 binding
same,inhibition at 1 µM,"Thromboxane B2 (TXB2); Table 3, 1 μM, read-out: % Inhibition TXB2",25%
same,inhibition at 3 µM,"Thromboxane B2 (TXB2); Table 3, 3 μM, read-out: % Inhibition TXB2",20%
same,inhibition at 10 µM,"Thromboxane B2 (TXB2); Table 3, 10 μM, read-out: % Inhibition TXB2",41%
same,IC50,aminopeptidase M,80000 nM
same,inhibition at 1 µM,Leukotriene B4 (LTB4); [17],29%
same,inhibition at 3 µM,Leukotriene B4 (LTB4); [17],59%
same,inhibition at 10 µM,Leukotriene B4 (LTB4); [17],39%
COc1ccc(-n2nc(CCC(=O)N(C)O)cc2-c2ccc(Cl)cc2)cc1 [Tepoxalin],IC50,5-lipoxygenase,1290 nM
same,IC50,cyclooxygenase,200 nM
same,potency in the blood eicosanoid assay (in words),Leukotriene B4 (LTB4); Table 3 assay system,more potent than any compound in this table
B1,Km,[8],300 µM
same,Vmax,[8],135 nmol/min/mg
same,Km,[9],500 µM
same,Vmax,[9],530 nmol/min/mg
same,Km,[10],100 µM
same,Vmax,[10],30 nmol/min/mg
same,Km,[11],7.6 µM
same,Km,[12],100 µM
same,Vmax,[12],135 nmol/min/mg
same,Km,[13],200 µM
same,Vmax,[13],135 nmol/min/mg
